{"source": "patent US20110300073A1", "about": "“18F-LABELLED THREE-AND FOUR-CARBON ACIDS FOR PET IMAGING” (priority 2008, published 2011)", "key": {"[1]": {"tested_on": "prostate cancer CWR22RV1 xenografts", "assay": "MicroPET imaging of nude mice with CWR22RV1 xenografts", "assay_type": "in vivo", "procedure": "Small animal PET imaging was performed on MicroPET, to evaluate the potential of 2-[^18F]-fluoropropanoic acid (2-[^18F]-FPA), and 2-[^18F]-fluorobutanoic acid (2-[^18F]-FBA) as tumor imaging agents in mice with prostate cancer CWR22RV1 xenografts. […] In addition to uptake in the tumor, there is high uptake in heart and brain.\nThe mice were imaged using MicroPET first with [^18F]-FDG after 4 hour fasting 1 hour post injection. The activity was allowed to decay for 20 hrs and the same mice were imaged with 2-[^18F]-FPA 1 hour post injection. In case of 2-[^18F]-FPA, the animals were not fasted. […] 2-[^18F]-FPA has high uptake in brain like [^18F]\n(§1) All animal experiments were done in accordance with protocols approved by the Institutional Animal Care and Use Committee of Memorial Sloan-Kettering Cancer Center and followed National Institutes of Health guidelines for animal welfare. Subcutaneous tumors were produced in nude mice (20-25 g; Charles River Laboratories) by subcutaneous injection of 5×10^6 tumor cells in 200 μl consisting of 100 μl of cell culture medium and 100 μl of Matrigel under 2% Isofluorane anesthesia on the right forelimb of mice.\nImaging was performed by use of a dedicated small-animal PET scanner (Focus 120 microPET; Siemens Medical Solutions USA, Inc.). Mice were maintained under 2% isoflurane anesthesia in oxygen at 2 L/min during the entire scanning period. Imaging was performed one hour post administration of 11.1 MBq (300 μCi) of either 2-[^18F]-FPA or [^18F]-FDG via the lateral tail vein. An energy window of 350-700 keV and a coincidence timing window of 6 ns were used. The image data were corrected for non-uniformity of the scanner response, dead time count losses, and physical decay to the time of injection. No correction was applied for attenuation, scatter, or partial-volume averaging. The measured reconstructed spatial resolution of the Focus 120 scanner is ˜1.6 mm full width at half maximum at the center of the field of view."}, "CWR22RV1 xenografts": {"tested_on": "CWR22RV1 xenografts", "assay": "single isotope [18F] biodistribution study in mice with CWR22rv1 tumors", "assay_type": "in vivo", "conditions": "for tumor to organ ratio, blood / tumor to organ ratio, bone / tumor to organ ratio, heart / tumor to organ ratio, kidneys / tumor to organ ratio, large intestine / tumor to organ ratio, liver / tumor to organ ratio, lungs / tumor to organ ratio, muscle / tumor to organ ratio, small intestine / tumor to organ ratio, spine / tumor to organ ratio, spleen / tumor to organ ratio, stomach: tail vein, nude mice with CWR22RV1 xenografts", "procedure": "as §1\nFor single isotope ([^18F]) biodistribution studies, mice with CWR22rv1 tumors were injected intravenously in the tail vein with 3.7-5.5 MBq (100-150 μCi) of [^18F]-FPA in 200 μL of saline. Radioactivity in the syringe before and after administration was measured in an energy-calibrated dose calibrator (CRC-15R; Capintec) and exact quantity received by each animal was determined. The animals were euthanized at different time points and then the organs were harvested. [^18F] radioactivity was measured in a calibrated gamma counter (Perkin Elmer 1480 Wizard 3 Auto Gamma counter, Waltham, Mass.) using 400-600 keV energy window and decay correction. The counts were converted into activity and % ID/g was calculated by dividing with decay corrected injected activity and weight of the organ. […] In addition to tumor, there is high uptake in blood and heart. The tumor to organ ratio of 2-[^18F]-FPA at 1, 2, 3 and 4 hour post injection is: […]"}, "rats [2]": {"tested_on": "rats", "conditions": "Dreisbach's Handbook of Poisoning; cited from earlier work"}, "rats [3]": {"tested_on": "rats", "assay": "toxicity in rats (oral LD50 / single dose)", "conditions": "given at 212 mg/kg to rats"}, "[4]": {"conditions": "summary over 1-4 hour post injection"}}, "data": [{"smiles": "CC([18F])C(=O)O", "note": "(centres unmarked) [2-[^18F]-FPA, 2-[^18F]-fluoropropanoic acid]", "values": [{"measurement": "uptake in brain (MicroPET)", "setting": "[1]; 1 hour post injection", "result": "high uptake"}, {"measurement": "accumulation in the kidneys of mice, unlike [18F]-FDG", "setting": "[1]; 1 hour post injection, FIG. 1", "result": "much lower accumulation"}, {"measurement": "tumor visualization as compared to [18F]-FDG", "setting": "[1]; 1 hour post injection, same mice, FIG. 1", "result": "much more clearly"}, {"measurement": "uptake in heart (MicroPET)", "setting": "[1]; one hour post administration", "result": "high uptake"}, {"measurement": "tumor visualization in MicroPET image", "setting": "[1]; one hour post administration, transaxial and coronal slices, 5 minute acquisition time", "result": "easily visualized"}, {"measurement": "biodistribution during the time of study", "setting": "CWR22RV1 xenografts; 1, 2, 3 and 4 hour post administration via tail vein", "result": "remains similar"}, {"measurement": "accumulation of tracer in tumor", "setting": "CWR22RV1 xenografts; 1-4 hour post administration", "result": "considerable accumulation"}, {"measurement": "uptake in blood", "setting": "CWR22RV1 xenografts; 1-4 hour post administration", "result": "high uptake"}, {"measurement": "uptake in heart (biodistribution)", "setting": "CWR22RV1 xenografts; 1-4 hour post administration", "result": "high uptake"}, {"measurement": "tumor to organ ratio, blood", "setting": "CWR22RV1 xenografts; 1 hour post injection", "result": 1.05}, {"measurement": "tumor to organ ratio, bone", "setting": "CWR22RV1 xenografts; 1 hour post injection", "result": 2.79}, {"measurement": "tumor to organ ratio, heart", "setting": "CWR22RV1 xenografts; 1 hour post injection", "result": 0.90}, {"measurement": "tumor to organ ratio, kidneys", "setting": "CWR22RV1 xenografts; 1 hour post injection", "result": 1.43}, {"measurement": "tumor to organ ratio, large intestine", "setting": "CWR22RV1 xenografts; 1 hour post injection", "result": 1.39}, {"measurement": "tumor to organ ratio, liver", "setting": "CWR22RV1 xenografts; 1 hour post injection", "result": 1.35}, {"measurement": "tumor to organ ratio, lungs", "setting": "CWR22RV1 xenografts; 1 hour post injection", "result": 1.22}, {"measurement": "tumor to organ ratio, muscle", "setting": "CWR22RV1 xenografts; 1 hour post injection", "result": 1.79}, {"measurement": "tumor to organ ratio, small intestine", "setting": "CWR22RV1 xenografts; 1 hour post injection", "result": 1.26}, {"measurement": "tumor to organ ratio, spine", "setting": "CWR22RV1 xenografts; 1 hour post injection", "result": 1.76}, {"measurement": "tumor to organ ratio, spleen", "setting": "CWR22RV1 xenografts; 1 hour post injection", "result": 1.40}, {"measurement": "tumor to organ ratio, stomach", "setting": "CWR22RV1 xenografts; 1 hour post injection", "result": 2.50}, {"measurement": "tumor to organ ratio, blood", "setting": "CWR22RV1 xenografts; 2 hours post injection", "result": 1.03}, {"measurement": "tumor to organ ratio, bone", "setting": "CWR22RV1 xenografts; 2 hours post injection", "result": 2.14}, {"measurement": "tumor to organ ratio, heart", "setting": "CWR22RV1 xenografts; 2 hours post injection", "result": 0.94}, {"measurement": "tumor to organ ratio, kidneys", "setting": "CWR22RV1 xenografts; 2 hours post injection", "result": 1.57}, {"measurement": "tumor to organ ratio, large intestine", "setting": "CWR22RV1 xenografts; 2 hours post injection", "result": 1.49}, {"measurement": "tumor to organ ratio, liver", "setting": "CWR22RV1 xenografts; 2 hours post injection", "result": 1.24}, {"measurement": "tumor to organ ratio, lungs", "setting": "CWR22RV1 xenografts; 2 hours post injection", "result": 1.17}, {"measurement": "tumor to organ ratio, muscle", "setting": "CWR22RV1 xenografts; 2 hours post injection", "result": 1.79}, {"measurement": "tumor to organ ratio, small intestine", "setting": "CWR22RV1 xenografts; 2 hours post injection", "result": 1.57}, {"measurement": "tumor to organ ratio, spine", "setting": "CWR22RV1 xenografts; 2 hours post injection", "result": 1.61}, {"measurement": "tumor to organ ratio, spleen", "setting": "CWR22RV1 xenografts; 2 hours post injection", "result": 1.56}, {"measurement": "tumor to organ ratio, stomach", "setting": "CWR22RV1 xenografts; 2 hours post injection", "result": 3.60}, {"measurement": "tumor to organ ratio, blood", "setting": "CWR22RV1 xenografts; 3 hours post injection", "result": 1.04}, {"measurement": "tumor to organ ratio, bone", "setting": "CWR22RV1 xenografts; 3 hours post injection", "result": 2.58}, {"measurement": "tumor to organ ratio, heart", "setting": "CWR22RV1 xenografts; 3 hours post injection", "result": 1.07}, {"measurement": "tumor to organ ratio, kidneys", "setting": "CWR22RV1 xenografts; 3 hours post injection", "result": 1.60}, {"measurement": "tumor to organ ratio, large intestine", "setting": "CWR22RV1 xenografts; 3 hours post injection", "result": 1.51}, {"measurement": "tumor to organ ratio, liver", "setting": "CWR22RV1 xenografts; 3 hours post injection", "result": 1.33}, {"measurement": "tumor to organ ratio, lungs", "setting": "CWR22RV1 xenografts; 3 hours post injection", "result": 1.30}, {"measurement": "tumor to organ ratio, muscle", "setting": "CWR22RV1 xenografts; 3 hours post injection", "result": 1.76}, {"measurement": "tumor to organ ratio, small intestine", "setting": "CWR22RV1 xenografts; 3 hours post injection", "result": 1.58}, {"measurement": "tumor to organ ratio, spine", "setting": "CWR22RV1 xenografts; 3 hours post injection", "result": 1.57}, {"measurement": "tumor to organ ratio, spleen", "setting": "CWR22RV1 xenografts; 3 hours post injection", "result": 1.62}, {"measurement": "tumor to organ ratio, stomach", "setting": "CWR22RV1 xenografts; 3 hours post injection", "result": 4.48}, {"measurement": "tumor to organ ratio, blood", "setting": "CWR22RV1 xenografts; 4 hours post injection", "result": 1.06}, {"measurement": "tumor to organ ratio, bone", "setting": "CWR22RV1 xenografts; 4 hours post injection", "result": 1.90}, {"measurement": "tumor to organ ratio, heart", "setting": "CWR22RV1 xenografts; 4 hours post injection", "result": 1.00}, {"measurement": "tumor to organ ratio, kidneys", "setting": "CWR22RV1 xenografts; 4 hours post injection", "result": 1.29}, {"measurement": "tumor to organ ratio, large intestine", "setting": "CWR22RV1 xenografts; 4 hours post injection", "result": 1.87}, {"measurement": "tumor to organ ratio, liver", "setting": "CWR22RV1 xenografts; 4 hours post injection", "result": 1.41}, {"measurement": "tumor to organ ratio, lungs", "setting": "CWR22RV1 xenografts; 4 hours post injection", "result": 1.32}, {"measurement": "tumor to organ ratio, muscle", "setting": "CWR22RV1 xenografts; 4 hours post injection", "result": 1.85}, {"measurement": "tumor to organ ratio, small intestine", "setting": "CWR22RV1 xenografts; 4 hours post injection", "result": 1.44}, {"measurement": "tumor to organ ratio, spine", "setting": "CWR22RV1 xenografts; 4 hours post injection", "result": 1.44}, {"measurement": "tumor to organ ratio, spleen", "setting": "CWR22RV1 xenografts; 4 hours post injection", "result": 1.56}, {"measurement": "tumor to organ ratio, stomach", "setting": "CWR22RV1 xenografts; 4 hours post injection", "result": 3.54}, {"measurement": "tumor to organ ratio, heart (overall)", "setting": "CWR22RV1 xenografts; [4]", "result": "around 0.95"}, {"measurement": "tumor to organ ratio, most of the organs except heart", "setting": "CWR22RV1 xenografts; [4]", "result": "greater than 1"}]}, {"smiles": "O=C(O)CF", "note": "[2-fluoroacetic acid]", "values": [{"measurement": "oral LD50 in rats", "setting": "rats [2]", "result": 0.22, "unit": "mg/kg"}]}, {"smiles": "CC(F)C(=O)O", "note": "(centres unmarked) [2-fluoropropanoic acid]", "values": [{"measurement": "toxicity in rats", "setting": "rats [3]", "result": "no toxicity was observed"}]}, {"smiles": "OC[C@H]1OC(O)[C@H]([18F])[C@@H](O)[C@@H]1O", "note": "(some centres unmarked) [[^18F]-FDG, [^18F]-fluorodeoxyglucose, reference compound]", "values": [{"measurement": "uptake in brain (MicroPET)", "setting": "[1]; 1 hour post injection", "result": "high uptake"}]}]}
